Experimental data taken from article PMC5467147, “Identification of a Peptide for Systemic Brain Delivery of a Morpholino Oligonucleotide in Mouse Models of Spinal Muscular Atrophy” (Nucleic Acid Therapeutics, 2017).

Key:
patients = details: human, in vivo; cited from earlier work
SMN2 pre-mRNA exon 7 = assay: In vivo screening of P-PMOs in neonatal SMA mice at PND4, full-length SMN2 by RT-qPCR; design: species or system mouse; details: facial vein at PND4, 2.66 nmol P-PMO, harvest 7 days after treatment, normalized to total SMN2, relative to saline, mean ± SEM, n = 4–6
[1] = system: severe SMA (Smn1tm1Hung/tm1Hung;SMN2tg/o) mice; assay: Survival and phenotype of severe newborn SMA mice treated at PND0 and PND2; assay type: in vivo, mouse; details: severe SMA pups
Description: Experiments were carried out in the Biomedical Sciences Unit, University of Oxford, according to procedures authorized by the UK Home Office and approved by the Unit Approval Board. Experiments were carried out using the SMA-like mouse strain FVB.Cg-Smn1^tm1HungTg(SMN2)2Hung/J. For the purposes of welfare, the peptide screen was carried out on hemizygotic (Smn1^tm1Hung/wt;SMN2^tg/tg) pups generated as previously described. Each litter (n = 4–6 per P-PMO) at PND4 was injected with P-PMO (2.6 nmol) in 10–15 μL of 0.9% saline. The control litter was injected with 0.9% saline. Neonatal mice were euthanized 7 days postinjection and brains, kidneys, and quadriceps were extracted and frozen on dry ice before RNA extraction. The Br-ApoE (K→A)-PMO and Br-ApoE (K→A)-scrambled PMO were further analyzed in homozygotic pups (Smn1^tm1Hung/tm1Hung;SMN2^tg/o) generated as previously described. Pups used for phenotype assessment were injected with 10 μg/g (1 nmol) Br-ApoE (K→A)-PMO, Br-ApoE (K→A)-scrambled PMO, SMA-PMO through the facial vein at PND0 and PND2. Treated animals were weighed daily and observed for survival longevity. A humane endpoint was determined by mobility and weight. Animals who had reached their humane endpoint were euthanized by rising CO2.
Pups were also tested from PND2 to PND12 for hindlimb strength and […]. Hindlimb strength was scored using a hindlimb suspension (HLS) test developed by PsychoGenics, Inc. and described in the standardized protocols and procedures for preclinical studies by TREAT-NMD. The HLS score relates to the position of the legs and tail of pups suspended by their hindlimbs onto the lip of a 50-cc test tube. A score of 0 − 4 is given with the 0 relating to the weakest phenotype (feet clasped and tail down) and a 4 given to the strongest phenotype (legs spread and tail up). For the purposes of reproducibility, factors such as leg pulls and time were left out of the analysis. Righting reflex was measured by placing pups on their back and timing their ability to right themselves onto all four paws.

SMNΔ7 mice = details: newborn SMNΔ7 mice, single ICV injections (27, 54, and 81 μg) at P0; cited from earlier work
Description: PMO is used in several clinical and preclinical studies due to its high stability and low toxicity. The PMO sequence PMO20, also known as HSMN2Ex7D(−10,-29), has been previously studied by Porensky et al.. Single ICV injections (27, 54, and 81 μg) of this PMO in newborn SMNΔ7 mice at P0 increased the levels of both full-length SMN2 RNA transcript in the brain and spinal cord as well as SMN protein and yielded an increased survival of >100 days. In a similar study, Zhou et al. used the same PMO sequence [PMO20 (−10, −29)] as well as PMO18 (−10, −27) and PMO25 (−10, −34 ...

## Nusinersen
patients
  patients who developed side effects such as headache, back pain, and postlumbar puncture syndromes: 32 % of patients

## SMA-PMO: unconjugated 20-mer PMO for SMN2 exon-7 inclusion, 5′-ATTCACTTTCATAATGCTGG-3′ (all phosphorodiamidate morpholino (PMO))
SMN2 pre-mRNA exon 7
  full-length SMN2 transcript, Brain: 1 ± 0.02
  full-length SMN2 transcript, Kidney: 1 ± 0.04
  full-length SMN2 transcript, Quad (quadriceps): 1.25 ± 0.05
[1]; 10 μg/g facial vein at PND0 and PND2, days by b51, saline 6–13
  age range (survival): 11–49
[1]; two doses of 10 mg/kg (10 μg/g) facial vein at PND0 and PND2, saline 10.5 days
  median survival: 29 days
[1]; two doses of 10 mg/kg at PND0 and PND2, PND2 to PND12
  hindlimb strength (hindlimb suspension tube test): gradual decline in muscle strength
SMNΔ7 mice
  survival: > 100 days

## AngioPep-2
SMN2 pre-mRNA exon 7
  full-length SMN2 transcript, Brain: 1 ± 0.03
  full-length SMN2 transcript, Kidney: 1.07 ± 0.07
  full-length SMN2 transcript, Quad (quadriceps): 1.24 ± 0.1
